BigSolDB 2.1

[NH3+]O.[NH3+]O.[O-]n1nnnc1-c1nnnn1[O-]
solubility (mole fraction)
Conditions	298.15 K	303.15 K	308.15 K	313.15 K	318.15 K	323.15 K	328.15 K	333.15 K
in acetic acid	7.44e-05	8.86e-05	0.000105	0.000125	0.000146	0.000171	0.000199	0.000231
in ethanol	1.35e-05	1.54e-05	1.76e-05	2.01e-05	2.27e-05	2.56e-05	2.88e-05	3.24e-05
in formic acid	0.00144	0.00163	0.00183	0.00205	0.00229	0.00254	0.00283	0.00313
in water	0.000128	0.000156	0.00019	0.000228	0.000274	0.000325	0.000385	0.000456
